# Results published in US6649364B1, “Anti-apoptotic compositions and methods using same” (The Regents of the University of California, priority 1995, dated 2003).
# Where a SMILES comes first, the peptide text is derived from it. [ ]: non-standard residue; d: D form. The star is where a group is joined. Sta = CC(C)C[C@H](N)[C@@H](O)CC(=O)O; Isovaleryl = CC(C)CC(=O)*
# Molecular target: T1, human recombinant ICE (Homo sapiens, UniProt P29466)
# T1 construct: highly purified human recombinant ICE (p20/p10) (Merck, Wayne, N.J.); purchased Merck, Wayne, N.J
# T1 sequence (P29466 120-297 limits assumed): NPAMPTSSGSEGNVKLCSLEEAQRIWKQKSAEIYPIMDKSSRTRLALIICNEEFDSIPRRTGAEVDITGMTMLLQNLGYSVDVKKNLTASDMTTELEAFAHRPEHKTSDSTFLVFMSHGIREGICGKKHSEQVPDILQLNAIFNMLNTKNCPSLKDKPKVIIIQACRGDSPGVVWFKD
# T1 sequence (P29466 317-404 limits assumed): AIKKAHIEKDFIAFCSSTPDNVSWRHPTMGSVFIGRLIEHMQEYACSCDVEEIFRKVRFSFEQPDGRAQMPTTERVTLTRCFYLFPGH
# Test: ICE cleavage of actin in PC12 cell extracts, with protease inhibitors (SDS-PAGE, immunoblot)
# Type: biochemical
# Conditions: not given
# Protocol: Cells were washed with ice-cold PBS twice and were extracted with Triton X-100® detergent (1%) in Hepes buffer (10 mM, pH=7.5). Supernatants were treated with ICE as follows: 50 μg of cellular protein extracted from semi-confluent cells grown in serum-containing media was incubated with 50 ng of highly purified human recombinant ICE (p20/p10) (Merck, Wayne, N.J.) at 37° C. for 2 hours in the presence of 10 mM dithiothreitol (DTT).
# In order to determine whether any of the cellular proteins of relatively high abundance serve as ICE substrates, extracts prepared from PC12 pheochromocytoma cells (29), CSM14.1 cells (conditionally immortalized mesencephalic neuronal cells) (30, 31), and Rat-1 cells (25) were treated with highly purified human recombinant ICE under various conditions. The cleavage products were then analyzed by SDS-polyacrylamide gel electrophoresis.
# Control was incubated in the absence of ICE.
row,Compound,inhibition of the generation of actin fragments by ICE
1,O=C(O)CI [iodoacetate],completely inhibited

# Same assay, conditions: cell extracts treated with ICE, 37° C., 2 hours
row,Compound,inhibition of the generation of actin fragments by ICE
1,CC(C)C[C@H](NC(=O)[C@H]1O[C@@H]1C(=O)O)C(=O)NCCCCN=C(N)N [E-64],not
2,CC(=O)N[C@@H](CC(C)C)C(=O)N[C@@H](CC(C)C)C(=O)N[C@H](C=O)CCCNC(=N)N [leupeptin],not
3,CC(C)CC(=O)N[C@H](C(=O)N[C@H](C(=O)N[C@@H](CC(C)C)[C@@H](O)CC(=O)N[C@@H](C)C(=O)N[C@@H](CC(C)C)[C@@H](O)CC(=O)O)C(C)C)C(C)C [pepstain] (Isovaleryl-VV[Sta]A[Sta]-OH),not
4,O=S(=O)(F)Cc1ccccc1 [phenylmethylsulfonyl fluoride],not
5,Ac-Tyr-Val-Ala-Asp-CHO,completely inhibited
6,"human α2-macroglobulin: granzyme B inhibitor, shown not to inhibit ICE",not
